From patent US9212396B2, “Materials and methods useful for affecting tumor cell growth, migration and invasion” (The Ohio State University, priority 2009, dated 2015)

What was measured:
Type in all cases: cell-based, human
Calu-1 cells [1] = test: Migration and invasion assay in Calu-1 cells; conditions: Calu-1 cells after transfection
Description: (§1) Transwell insert chambers with […] porous membrane (Greiner bio-one) were used for the assay. Cells were washed three times with PBS and added to the top chamber in serum-free media. The bottom chamber was filled with media containing 10% FBS. Cells were incubated for 24 h at 37° C. in a 5% CO2 humidified incubator. To quantify migrating cells, cells on the top chamber were removed by using a cotton-tipped swab, and the migrated cells were fixed in PBS, 25% glutaraldehyde and stained with Crystal Violet stain, visualized under a phase-contrast microscope, and photographed. Cristal violet-stained cells were moreover solubilized in acetic acid and methanol (1:1) and absorbance was measured at 595 nm. The results are means of three independent experiments±S.D.
(§2) H460 and SK-Hep-1 cells were placed into the top chamber of a BD Falcon HTS FluoroBlok insert with a membrane containing […] pores (BD Biosciences) in […] of serum-free Dulbecco's modified Eagle medium in triplicate. […] The fluorescence of migrated cells was quantified using a fluorometer at excitation wavelengths of 485 nm and emission wavelengths of 530 nm and expressed as arbitrary fluorescence units. Data are expressed as mean±standard error of 4 separate determinations.

Calu-1 cells [2] = test: Caspase 3/7 assay of TRAIL-induced apoptosis in Calu-1 cells; conditions: Calu-1 cells transfected 72 h, control 2′-O-me-scrambled miR
Description: (§3) Cells were grown in six well plate (1.7×10^6 per well) for 24 h and transfected 100 nmoli/L/well of 2′-O-me-oligoribonucleotides using lipofectamine 2000. RNA and proteins were extracted after 72 h from the transfection.
(§4) Cells were plated in 96-well plates in triplicate and incubated at 37° C. in a 5% CO2 incubator. Super-Killer TRAIL (Alexis Biochemicals) was used for 24-48 h at 400 ng ml-1. Cell viability was examined with 3-(4,5-dimethylthiazol-2-yl)-2,5-dipheniltetrazolium bromide (MTT)-Cell Titer 96 AQueous One Solution Cell Proliferation Assay (Promega), according to the manufacturer's protocol. Metabolically active cells were detected by adding 20 μl of MTT to each well. After 1 h of incubation, the plates were analyzed in a Multilabel Counter (Bio-Rad Laboratories). Apoptosis was assessed using Annexin V-FITC apoptosis detection kits followed by flowcytometric analysis and caspase 3/7 activity. […] Statistical analysis was done using two sample t test, assuming equal variance, and P value was calculated based on two-tailed test. For detection of caspase 3/7 activity, cells were cultured in 96-well plates and treated with TRAIL 400 ng/ml and analyzed using Caspase-Glo 3/7 Assay kit (Promega) according to the manufacturer's instructions. Continuous variables are expressed as mean values±standard deviation (s.d.).

PTEN and TIMP3 [3] = test: Western blot of PTEN and TIMP3 in Calu-1 cells; conditions: Calu-1 cells after transfection
Description: (§5) Total proteins from NSCLC and HCC cells were extracted with radioimmuno-precipitation assay (RIPA) buffer ([…] NaCl, […] Tris-HCl, pH 7.5, 1% Triton, 0.1% SDS, 0.1% sodium deoxycholate and 1% Nonidet P40). Sample extract (50 μg) was resolved on 7.5-12% SDS-polyacrylamide gels (PAGE) using a mini-gel apparatus (Bio-Rad Laboratories) and transferred to Hybond-C extra nitrocellulose. Membranes were blocked for 1 h with 5% nonfat dry milk in Tris-buffered saline containing 0.05% Tween 20, incubated overnight with primary antibody, washed and incubated with secondary antibody, and visualized by chemiluminescence.
(§6) The following primary antibodies were used: anti-PTEN, anti-c-Jun, anti-p-c-Jun, anti-Fos, anti-p-JNK, anti-MMP3, anti-Mc1-1 (Santa Cruz), anti-TIMP3 (Millipore) anti-PI3K (BD Biosciences), anti-ERKs, anti-phospho ERKs, anti-AKT, anti-p-AKT, anti-GSK3b, anti-p-GSK3b (Ser9), anti-PAK1 anti-caspase-8,-3 and -9, anti-PARP, anti-cytochrome c (Cell signaling) and anti-MMP9, anti-FADD (Abcam), anti-1-actin antibody (Sigma). A secondary anti-rabbit or anti-mouse immunoglobulin G (IgG) antibody peroxidase conjugate (Chemicon) was used.
(§7) 2′-O-me-GFP miR (5′-[…] [SEQ ID No:17]) was used as control. Cells were grown in six well plate (1.7×10^6 per well) for 24 h and transfected 100 nmoli/L/well of 2′-O-me-oligoribonucleotides using lipofectamine 2000. […]

Snu-387 cells [4] = test: Migration and invasion assay in Snu-387 cells; conditions: Snu-387 cells after transfection
Description: as §1, §2

Snu-387 cells [5] = test: Caspase 3/7 assay of TRAIL-induced apoptosis in Snu-387 cells; conditions: Snu-387 cells transfected 72 h, control 2′-O-me-scrambled miR
Description: as §3, §4

PTEN and TIMP3 [6] = test: Western blot of PTEN and TIMP3 in Snu-387 cells; conditions: Snu-387 cells after transfection
Description: as §5, §6, §7

AKT pathway = test: Western blots of AKT pathway in Snu-387 cells; conditions: Snu-387 cells after knockdown
Description: as §5, §6, §7

c-Jun, PTEN and TIMP3 = test: Western blot in Huh7 cells after anisomycin
Description: as §5, §6

miR-221 and miR-222 = test: qRT-PCR of miR-221 and miR-222 in Huh7 cells after anisomycin; parameters: dose or concentration left out as unconfirmed
Description: Real-time PCR was performed using a standard TaqMan PCR Kit protocol on an Applied Biosystems 7900HT Sequence Detection System (Applied Biosystems). The 10 μl PCR reaction included 0.67 μl RT product, 1 μl TaqMan Universal PCR Master Mix (Applied Biosystems), […]. The reactions were incubated in a 96-well plate at 95° C. for […], followed by 40 cycles of 95° C. for 15 s and 60° C. for 1 min. All reactions were run in triplicate. The threshold cycle (CT) is defined as the fractional cycle number at which the fluorescence passes the fixed threshold. The comparative CT method for relative quantization of gene expression (Applied Biosystems) was used to determine miRNA expression levels. The y axis represents the 2(-CT), or the relative expression of the different miRs. miRs expression was calculated relative to U44 and U48 rRNA and multiplied by 104. Experiments were carried out in triplicate for each data point, and data analysis was performed by using software (Bio-Rad).

Sk-Hep1 cells = test: Migration and invasion assay in Sk-Hep1 cells; conditions: Sk-Hep1 cells after transfection
Description: as §1, §2

H460 cells [7] = test: Migration and invasion assay in H460 cells; conditions: H460 cells after transfection
Description: as §1, §2

PTEN and TIMP3 mRNA = test: qRT-PCR of PTEN and TIMP3 mRNA in H460 cells
PTEN and TIMP3 3′ UTRs = test: 3′UTR luciferase reporter assay in MEG01 cells; conditions: wild type 3′ UTRs
Text: The 3′ UTR of the human PTEN and TIMP3 genes were PCR amplified using the following primers: PTEN Fw 5′-TCTAGAGACTCTGATCCAGAGAATGAACC-3′ [SEQ ID No:1] and PTEN Rw 5′-TCTAGAGTTGCCACAAGTGCAAAGGGGTAGGATGTG-3′ [SEQ ID No:2]; TIMP3 Fw 5′-TCTAGACTGGGCAAAGAAGGGTCTTTCGCAAAGC-3′ [SEQ ID No:3] and TIMP3 Rw 5′ TCTAGATTCCAATAGGGAGGAGGCTGGAGGAGTCTC-3′ [SEQ ID No:4] and cloned downstream of the […] luciferase stop codon in pGL3 control vector (Promega), giving rise to the p3′UTR-PTEN and p3′UTR-TIMP3 plasmids.
These constructs were used to generate, by inverse PCR, the p3′-UTRmut-PTEN plasmid-primers: Fw: 5′-GTTGAAAAAAGGTTGGGGGCGGGTGTCATGTATATAC-3 [SEQ ID No:5]; Rw: 5′-GTATATACATGACACCCGCCCCCAACCTTTTTTCAAC-3′[SEQ ID No:6]; p3′-UTRmut-TIMP3 plasmid-primers: Fw: 5′-GTATAATTTAAAATCATTGGGCGGCGGGAGACACTTCTGTATTTC-3′ [SEQ ID No:7]; Rw: 5′-GAAATACAGAAGTGTCTCCCGCCGCCCAATGATTTTAAATTATAC-3′ [SEQ ID No:8].
MeG01 cells were cotransfected with 1 μg of p3′UTR-PTEN or p3′UTR-TIMP3 and with p3′UTRmut-PTEN or p3′ UTR TIMP3 plasmids and 1 μg of a Renilla luciferase expression construct pRL-TK (Promega) by using Lipofectamine 2000 (Invitrogen). Cells were harvested 24 h post-transfection and assayed with Dual Luciferase Assay (Promega) according to the manufacturer's instructions. […]

H460 cells [8] = test: Flow cytometric cell cycle analysis of H460 cells; conditions: H460 transfected cells, 72 h
PTEN and TIMP3 [9] = test: Western blot of PTEN and TIMP3 in Sk-Hep1 cells; conditions: Sk-Hep1 cells upon over-expression
Description: as §5, §6

[10] = tested on: AKT/ERKs pathways and Metallopeptidases; test: Western blots of AKT/ERKs pathways and metallopeptidases in H460 cells; conditions: H460 cells after forced expression
Description: as §5, §6

PTEN and TIMP3 [11] = test: Western blot of PTEN and TIMP3 in H460 cells; conditions: 72 h, compared to scrambled pre-miR
Description: as §5, §6

Compound: 5′-gaaacccagcagacaauguagcu (antisense GAAACCCAGCAGACAAUGUAGCU; all 2'-O-methyl, backbone not given here) [2′-O-me-anti-miR-221]
- cell migration and invasion (Calu-1 cells [1]): a decrease in cell migration and invasion
- sensitivity to TRAIL-induced apoptosis (caspase 3/7 assay) (Calu-1 cells [2]): considerably sensitized these cells to TRAIL-induced apoptosis
- PTEN and TIMP3 protein levels (western blot) (PTEN and TIMP3 [3]): increased the protein levels of PTEN and TIMP3
- cell migration and invasion (Snu-387 cells [4]): a decrease in cell migration and invasion
- sensitivity to TRAIL-induced apoptosis (caspase 3/7 assay) (Snu-387 cells [5]): considerably sensitized these cells to TRAIL-induced apoptosis
- PTEN and TIMP3 protein level (western blot) (PTEN and TIMP3 [6]): increased the protein level of PTEN and TIMP3
- AKT pathway (western blots) (AKT pathway): inhibition of the AKT pathway

Compound: COc1ccc(C[C@H]2NC[C@H](O)[C@H]2OC(C)=O)cc1 [anisomycin]
- PTEN and TIMP3 expression levels (c-Jun, PTEN and TIMP3; Huh7 cells after anisomycin): decreased drastically
- c-Jun activation (c-Jun, PTEN and TIMP3; Huh7 cells, total lysate, western blot): induced c-Jun activation
- miR-221 expression increase (qRT-PCR) (miR-221 and miR-222): 80%
- miR-222 expression increase (qRT-PCR) (miR-221 and miR-222): 40%

Compound: 5′-gagacccagtagccagatgtagct (antisense GAGACCCAGTAGCCAGATGTAGCT; all 2'-O-methyl, backbone and T or U not given here) [2′-O-me-anti-miR-222]
- cell migration and invasion (Calu-1 cells [1]): a decrease in cell migration and invasion
- sensitivity to TRAIL-induced apoptosis (caspase 3/7 assay) (Calu-1 cells [2]): considerably sensitized these cells to TRAIL-induced apoptosis
- PTEN and TIMP3 protein levels (western blot) (PTEN and TIMP3 [3]): increased the protein levels of PTEN and TIMP3
- cell migration and invasion (Snu-387 cells [4]): a decrease in cell migration and invasion
- sensitivity to TRAIL-induced apoptosis (caspase 3/7 assay) (Snu-387 cells [5]): considerably sensitized these cells to TRAIL-induced apoptosis
- PTEN and TIMP3 protein level (western blot) (PTEN and TIMP3 [6]): increased the protein level of PTEN and TIMP3
- AKT pathway (western blots) (AKT pathway): inhibition of the AKT pathway

Compound: miR-222: microRNA transfected (100 nM) for enforced expression (GAGACCCAGTAGCCAGATGTAGCT; listed as DNA, chemistry not given here)
- migratory and invasive capabilities (Sk-Hep1 cells): significant increase
- migratory and invasive capabilities (H460 cells [7]): significant increase
- down-regulation of TIMP3 mRNA (qRT-PCR) (PTEN and TIMP3 mRNA; H460 cells after enforced expression): not observed
- PTEN mRNA levels (qRT-PCR) (PTEN and TIMP3 mRNA; H460 cells after forced expression): strongly reduced
- relative luciferase activity of PTEN and TIMP3 3′ UTR reporter constructs (PTEN and TIMP3 3′ UTRs): significantly affected luciferase expression
- cell cycle distribution (H460 cells [8]): a decrease of G1 and a corresponding increase of the S and G2-M phases
- PTEN and TIMP3 proteins (western blot) (PTEN and TIMP3 [9]): reduced
- activation of AKT/ERKs pathways and metallopeptidases (western blots) [10]: induces the activation of the AKT/ERKs pathways and Metallopeptidases
- endogenous levels of PTEN and TIMP3 (western blot) (PTEN and TIMP3 [11]): significantly reduced the endogenous levels of PTEN and TIMP3
